Measurements reported in US11485736B2 (KSQ Therapeutics, Inc., priority 2018, dated 2022).
Read-outs that look alike come from different tables or passages of the source.

Legend:
[1] = Liver microsomal stability, human liver microsomes; type: in vitro ADME; conditions: 1 μM compound, NADPH, read-out: t1/2 (min) in HLM
Procedure: (§1) Certain Compounds of the Disclosure were assessed for ADME metabolic stability in human liver microsomes (HLM) and rat liver microsomes (RLM).
(§2) Samples were prepared by adding 222.5 μL of a master solution (100 mM phosphate buffer and 1 mg/mL liver microsomes (HLM or RLM)) and 25 μL of a 10 mM NADPH solution to incubation plates, which were then warmed for 10 min. Each compound was separately dissolved in DMSO to prepare 10 mM stock solutions, which were then diluted to 100 μM with acetonitrile. A reaction was started by adding 2.5 μL of the 100 μM solution of each compound to separate incubation plates such that the final concentration of for each compound in each plate was 1 μM.
(§3) 25 μL aliquots of each sample were taken at 0.5, 5, 10, 15, 20 and 30 minutes, and the reaction was stopped by adding 5 volumes of cold acetonitrile with IS (100 nM alprazolam, 200 nM caffeine and 100 nM tolbutamide). The samples were then centrifuged at 3,220 G for 30 minutes, and 100 μL of the supernatant fluid was mixed with 100 μL of ultra-pure H2O.
(§4) The samples were then analyzed by LC-MS/MS. Peak areas were determined from extracted ion chromatograms. Slope values (k) were determined by linear regression of the natural logarithm of the remaining percentage of the compound vs. incubation time curve. […] The in vitro half-life (min) was converted into the in vitro intrinsic clearance (in vitro CLint, in μL/min/mg protein) using the following equation: […]

[2] = Liver microsomal stability, rat liver microsomes; type: in vitro ADME; conditions: 1 μM compound, NADPH, read-out: t1/2 (min) in RLM
Procedure: as §1, §2, §3, §4

[3] = ADME solubility determination at pH 2.0 and pH 7.4; type: physicochemical; conditions: aqueous buffer, thermodynamic from solid, LC-MS/MS
Procedure: Certain Compounds of the Disclosure were assessed for ADME solubility at pH 2.0 and pH 7.4.
Stock solutions were prepared by adding each compound to DMSO at a concentration of 10 mM. Samples were prepared by adding 50 μL of each stock solution to separate vials. The vials were loaded onto a 96-well rack and dried. 500 μL of Phosphate Buffered Saline (PBS) pH 7.4 or PBS pH 2.0 were added into each vial. The vials were then shaken at 25° C. and 1,100 rpm for 24 hours.
After 24 hours, the vials were centrifuged at 3220 G and 25° C. for 30 minutes. The supernatant fluid was analyzed by LC-MS/MS against a standard of known concentration. The solubility of each sample was then calculated using the equation below:
[formula] where DF is the dilution factor.

[4] = PBS pH 2.0, shaken at 25° C. for 24 hours, read-out: Solubility at pH 2.0
[5] = PBS pH 7.4, shaken at 25° C. for 24 hours, read-out: Solubility at pH 7.4

half-life at 1 μM [1]	half-life at 1 μM [2]	solubility at 24 h [3, 4]	solubility at 24 h [3, 5]	solubility at 24 h ([3]; phosphate buffered saline, PBS pH 2.0, shaken at 25° C. for 24 hours, read-out: Solubility at pH 2.0)	solubility at 24 h ([3]; phosphate buffered saline, PBS pH 7.4, shaken at 25° C. for 24 hours, read-out: Solubility at pH 7.4)	Structure (SMILES)
< 25 min	< 25 min			> 10 µM	< 10 µM	CCOc1ncnc(C2CC2)c1-c1ncc2cnn(Cc3ccc(-c4nc(C(F)(F)F)cn4C)cc3)c2n1 [Example 39]
> 25 min	> 25 min	< 10 µM	< 10 µM			COc1ncnc(C2CC2)c1-c1ncc2cnn(Cc3ccc(-c4nc(C(F)(F)F)cn4C)c(F)c3)c2n1 [Example 17]
> 25 min	> 25 min	> 10 µM	> 10 µM			COc1ncnc(C2(C)CC2)c1-c1ncc2cnn(Cc3ccc(-c4nc(C(F)(F)F)cn4C(C)C)cc3)c2n1 [Example 107]
> 25 min	> 25 min	< 10 µM	< 10 µM			COc1ncnc(C2CC2)c1-c1ncc2cnn(Cc3ccc(-c4nc(C(F)(F)F)sc4C)cc3)c2n1 [Example 125]
< 25 min	< 25 min	> 10 µM	> 10 µM			COc1ncnc(C2CC2)c1-c1ncc2ncn(Cc3ccc(-c4nc(C(F)(F)F)cn4C)cc3)c2n1 [Example 203]
< 25 min	< 25 min	< 10 µM	< 10 µM			COc1ncnc(C2CC2)c1-c1ncc2cnn(Cc3ccc(-c4nc(C(F)(F)F)c(OC)n4C(C)C)cc3)c2n1 [Example 166]
		< 10 µM	< 10 µM			COc1ncnc(C2CC2)c1-c1ncc2cnn(Cc3ccc(-c4csc(C(F)(F)F)n4)cc3)c2n1 [Example 126]

Further lines, the compound ahead of its results:

Structure (SMILES)	half-life at 1 μM [1]	half-life at 1 μM [2]	solubility at 24 h [3, 4]	solubility at 24 h [3, 5]	solubility at 24 h ([3]; phosphate buffered saline, PBS pH 2.0, shaken at 25° C. for 24 hours, read-out: Solubility at pH 2.0)	solubility at 24 h ([3]; phosphate buffered saline, PBS pH 7.4, shaken at 25° C. for 24 hours, read-out: Solubility at pH 7.4)
COc1ncnc(C2CC2)c1-c1ncc2cnn(Cc3ccc(-n4nc(C(F)(F)F)cc4N(C)C)c(F)c3)c2n1 [Example 122]	< 25 min	< 25 min	< 10 µM	< 10 µM		
COc1nccc(C)c1-c1ncc2cnn(Cc3ccc(-c4nc(C(F)(F)F)cn4C)cc3)c2n1 [Example 6, 6-(2-methoxy-4-methylpyridin-3-yl)-1-(4-(1-methyl-4-(trifluoromethyl)-1H-imidazol-2-yl)benzyl)-1H-pyrazolo[3,4-d]pyrimidine]	< 25 min	< 25 min	> 10 µM	< 10 µM		
COc1ncnc(C2CC2)c1-c1ncc2c(OC)nn(C(C)c3ccc(-c4nc(C(F)(F)F)cn4CCF)cc3)c2n1 (stereo not shown) [Example 177]	> 25 min	> 25 min	< 10 µM	< 10 µM		
COc1cccc(OC)c1-c1ncc2cnn(Cc3ccc(-c4nc(C(F)(F)F)cn4C)cc3)c2n1 [Example 4, 6-(2,6-dimethoxyphenyl)-1-(4-(1-methyl-4-(trifluoromethyl)-1H-imidazol-2-yl)benzyl)-1H-pyrazolo[3,4-d]pyrimidine]	< 25 min	< 25 min	> 10 µM	< 10 µM		
COc1cnn(C2CC2)c1-c1ncc2cnn(Cc3ccc(-c4nc(C(F)(F)F)cn4C(C)C)cc3)c2n1 [Example 83]	< 25 min	< 25 min	> 10 µM	< 10 µM		
CCn1cc(C(F)(F)F)nc1-c1ccc(Cn2nc(SC)c3cnc(-c4c(OC)ncnc4C4CC4)nc32)cc1 [Example 190, 6-(4-cyclopropyl-6-methoxypyrimidin-5-yl)-1-(4-(1-ethyl-4-(trifluoromethyl)-1H-imidazol-2-yl)benzyl)-3-(methylthio)-1H-pyrazolo[3,4-d]pyrimidine]	< 25 min	< 25 min	< 10 µM	< 10 µM		
COc1ncnc(C2CC2)c1-c1ncc2cnn(C(C)c3ccc(-c4nc(C(F)(F)F)cn4CCF)cc3)c2n1 (stereo not shown) [Example 141]	> 25 min	> 25 min	> 10 µM	< 10 µM		
COc1ncnc(C(C)C)c1-c1ncc2cnn(Cc3ccc(-c4nc(C(F)(F)F)cn4C(C)C)cc3)c2n1 [Example 119]	> 25 min	> 25 min	< 10 µM	> 10 µM		
